Where two headings read alike, the source gives them in different places.
Experiments:
Assay type in all cases: cell-based
[1] = system: MRC-5 (human fetal lung fibroblast cells, normal lung cell); test: MTT cytotoxicity assay, MRC-5 normal cells; details: MRC5, MRC-5, normoxia, 96 h MTT
Procedure: (§1) We focused our attention on the cytotoxicity of the four series of newly-synthesized compounds (10a–e, 11a–e, 12a–e, and 13a–e) under normoxic or anoxic conditions.
(§2) The data was calculated by the Logit method and presented as IC50 values in Table 1.
(§3) All of the newly-synthesized compounds were screened for in vitro cytotoxicity by MTT assay. The exponentially-growing MRC-5, HCT-116, MDA-MB-231, and HT-29 cells were allowed to grow until 80% confluency, the culture medium was discarded, digested with trypsin, separated centrifugally, then fresh culture medium was added and blown gently into single-cell suspension. Then, the cell suspension was seeded into each well of 96-well microculture plates at a concentration of 1.5 × 10^3–3 × 10^3 cells/well.
(§4) The cells were incubated with 50 μL of 2 mg/mL MTT solution for 4 h in a humidified incubator. The supernatant was discarded, and the media were then replaced with 200 μL of dimethyl sulfoxide to dissolve the purple colored formazan crystals formed in the wells, and their absorbances were measured at 492 nm with a microplate reader (Synergy-HT, BioTek Instruments, Winooski, VT, USA); 200 μL DMSO was set as the blank control.

[2] = system: HCT-116 (human colorectal cancer cell line); test: MTT cytotoxicity assay, HCT-116 under anoxia or normoxia; details: for HCT-116 Value = IC50(normoxia)/IC50(anoxia): HCT-116, activity promotion under anoxia, >100 set as 100; for IC50: Homo sapiens
Procedure: as §1, §2, §3, §4
(§5) The anoxia condition was achieved by placing cells in a sealed hypoxia incubator chamber (Catalog Number 27310, Stemcell Technologies, Inc., Vancouver, BC, Canada) filled with 5% CO2 and 95% N2.

[3] = system: MDA-MB-231 (human breast carcinoma cell line, CA IX negative); test: MTT cytotoxicity assay, MDA-MB-231 under anoxia or normoxia; details: for IC50: Homo sapiens; for MDA-MB-231 Value = IC50(normoxia)/IC50(anoxia): MDA-MB-231, activity promotion under anoxia, >100 set as 100
Procedure: as §1, §2, §3, §4, §5

[4] = system: HT-29 (human colon carcinoma cell line, overexpresses high amounts of CA IX); test: MTT cytotoxicity assay, HT-29 under anoxia or normoxia; details: for HT-29 Value = IC50(normoxia)/IC50(anoxia): HT-29, activity promotion under anoxia; for IC50: Homo sapiens
Procedure: as §1, §2, §3, §4, §5

[5] = HCT-116, anoxia 24 h then normoxia 72 h, MTT, read-out: IC50 HCT-116 Anoxia
[6] = HCT-116, normoxia, 96 h MTT, read-out: IC50 HCT-116 Normoxia
[7] = MDA-MB-231, anoxia 24 h then normoxia 72 h, MTT, read-out: IC50 MDA-MB-231 Anoxia
[8] = MDA-MB-231, normoxia, 96 h MTT, read-out: IC50 MDA-MB-231 Normoxia
[9] = HT-29, anoxia 24 h then normoxia 72 h, MTT, read-out: IC50 HT-29 Anoxia
[10] = HT-29, normoxia, 96 h MTT, read-out: IC50 HT-29 Normoxia

| SMILES | IC50 [1] [µM] | HCT-116 Value = IC50(normoxia)/IC50(anoxia) [2] | IC50 [2, 5] [µM] | IC50 [2, 6] [µM] | IC50 [3, 7] [µM] | IC50 [3, 8] [µM] | MDA-MB-231 Value = IC50(normoxia)/IC50(anoxia) [3] | HT-29 Value = IC50(normoxia)/IC50(anoxia) [4] | IC50 [4, 9] [µM] | IC50 [4, 10] [µM] |
| --- | --- | --- | --- | --- | --- | --- | --- | --- | --- | --- |
| C[C@H]1[C@@H](OCc2cn(CCCOc3ccc4c(C(F)(F)F)cc(=O)oc4c3)nn2)O[C@@H]2O[C@@]3(C)CC[C@H]4[C@H](C)CC[C@@H]1[C@@]24OO3 [11b, 7-(3-(4-(10β-Dihydroartemisininoxy)methyl)-1H-1,2,3-triazol-1-yl)propoxy-4-trifluoromethyl-2H-chromen-2-one] | 43.8 | 1.38 | 9.33 | 12.9 | 36.9 | 72.6 | 1.97 | 1.63 | 5.06 | 8.23 |
| Cc1c(C)c2ccc(OCCCn3cc(CO[C@H]4O[C@@H]5O[C@@]6(C)CC[C@H]7[C@H](C)CC[C@@H]([C@H]4C)[C@@]57OO6)nn3)cc2oc1=O [11c, 7-(3-(4-(10β-Dihydroartemisininoxy)methyl)-1H-1,2,3-triazol-1-yl)propoxy-3,4-dimethyl-2H-chromen-2-one] | 60.9 | 1.27 | 16.6 | 21 | 39.8 | 56 | 1.41 | 0.83 | 23.2 | 19.3 |
| CCOC(=O)c1cc2ccc(OCCCn3cc(CO[C@H]4O[C@@H]5O[C@@]6(C)CC[C@H]7[C@H](C)CC[C@@H]([C@H]4C)[C@@]57OO6)nn3)cc2oc1=O [11e, Ethyl 2-oxo-7-(3-(4-(10β-dihydroartemisininoxy)methyl)-1H-1,2,3-triazol-1-yl)propoxy-2H-chromene-3-carboxylate] | 38.7 | 1.57 | 28.1 | 44.1 | 50.7 | 121 | 2.38 | 4.25 | 12 | 51.1 |
| Cc1cc(=O)oc2cc(OCCn3cc(CO[C@H]4O[C@@H]5O[C@@]6(C)CC[C@H]7[C@H](C)CC[C@@H]([C@H]4C)[C@@]57OO6)nn3)ccc12 [10a, 7-(2-(4-(10β-Dihydroartemisininoxy)methyl)-1H-1,2,3-triazol-1-yl)ethoxy-4-methyl-2H-chromen-2-one] | 28 | 0.86 | 11.9 | 10.3 | 36.7 | 52 | 1.42 | 8.35 | 1.47 | 12.3 |
| Cc1c(C)c2ccc(OCCn3cc(CO[C@H]4O[C@@H]5O[C@@]6(C)CC[C@H]7[C@H](C)CC[C@@H]([C@H]4C)[C@@]57OO6)nn3)cc2oc1=O [10c, 7-(2-(4-(10β-Dihydroartemisininoxy)methyl)-1H-1,2,3-triazol-1-yl)ethoxy-3,4-dimethyl-2H-chromen-2-one] | 22.3 | 0.95 | 6.89 | 6.51 | 33.2 | 32.3 | 0.97 | 11.50 | 1.82 | 21 |
| Cc1c(Cl)c(=O)oc2cc(OCCCn3cc(CO[C@H]4O[C@@H]5O[C@@]6(C)CC[C@H]7[C@H](C)CC[C@@H]([C@H]4C)[C@@]57OO6)nn3)ccc12 [11d, 3-Chloro-7-(3-(4-(10β-dihydroartemisininoxy)methyl)-1H-1,2,3-triazol-1-yl)propoxy-4-methyl-2H-chromen-2-one] | > 100 | 1.28 | 6 | 7.68 | 22.5 | 51.6 | 2.29 | 2.90 | 1.34 | 3.9 |
| Cc1c(Cl)c(=O)oc2cc(OCCn3cc(CO[C@H]4O[C@@H]5O[C@@]6(C)CC[C@H]7[C@H](C)CC[C@@H]([C@H]4C)[C@@]57OO6)nn3)ccc12 [10d, 3-Chloro-7-(2-(4-(10β-dihydroartemisininoxy)methyl)-1H-1,2,3-triazol-1-yl)ethoxy-4-methyl-2H-chromen-2-one] | 50.7 | 0.79 | 5.3 | 4.18 | 29.2 | 61.4 | 2.10 | – | 0.05 | 17.7 |
| COc1cccc2c1C(=O)c1c(O)c3c(c(O)c1C2=O)C[C@@](O)(C(=O)CO)C[C@@H]3O[C@H]1C[C@H](N)[C@H](O)[C@H](C)O1 [DOX, doxorubicin, reference compound] | 0.34 | 0.39 | 0.15 | 0.06 | 0.37 | 0.27 | 0.73 | 1.74 | 0.05 | 0.09 |
| CCOC(=O)c1cc2ccc(OCCn3cc(CO[C@H]4O[C@@H]5O[C@@]6(C)CC[C@H]7[C@H](C)CC[C@@H]([C@H]4C)[C@@]57OO6)nn3)cc2oc1=O [10e, Ethyl 2-oxo-7-(2-(4-(10β-dihydroartemisininoxy)methyl)-1H-1,2,3-triazol-1-yl)ethoxy-2H-chromene-3-carboxylate] | 52.5 | 1.79 | 28.8 | 51.5 | 91.2 | > 100 | – | 3.66 | 8.69 | 31.8 |
| Cc1cc(=O)oc2cc(OCCCn3cc(CO[C@H]4O[C@@H]5O[C@@]6(C)CC[C@H]7[C@H](C)CC[C@@H]([C@H]4C)[C@@]57OO6)nn3)ccc12 [11a, 7-(3-(4-(10β-Dihydroartemisininoxy)methyl)-1H-1,2,3-triazol-1-yl)propoxy-4-methyl-2H-chromen-2-one] | 15.5 | 1.36 | 6.02 | 8.21 | 17.8 | 51.2 | 2.87 | 7.17 | 1.22 | 8.78 |
| C[C@H]1[C@@H](OCc2cn(CCOc3ccc4c(C(F)(F)F)cc(=O)oc4c3)nn2)O[C@@H]2O[C@@]3(C)CC[C@H]4[C@H](C)CC[C@@H]1[C@@]24OO3 [10b, 7-(2-(4-(10β-Dihydroartemisininoxy)methyl)-1H-1,2,3-triazol-1-yl)ethoxy-4-trifluoromethyl-2H-chromen-2-one] | 33.6 | 0.78 | 8.31 | 6.46 | 24.7 | 28 | 1.13 | 4.99 | 2.18 | 10.9 |
